Results: the NIST ThermoML archive (doi:10.1016/j.tca.2016.08.021)

Assays:
[1] = xn = mol fraction of the nth substance listed; conditions: 100 kPa, Liquid; for viscosity: Capillary tube (Ostwald / Ubbelohde) method; for mass density: Vibrating tube method
[2] = 100 kPa, Liquid; for viscosity: Capillary tube (Ostwald / Ubbelohde) method; for mass density: Vibrating tube method

CCNCCO [2-(ethylamino)ethanol] + O
[1]
Conditions	mass density, 293.15 K [kg/m3]	mass density, 303.15 K [kg/m3]	mass density, 313.15 K [kg/m3]	mass density, 323.15 K [kg/m3]	mass density, 333.15 K [kg/m3]	viscosity, 293.15 K [mPa·s]	viscosity, 303.15 K [mPa·s]	viscosity, 313.15 K [mPa·s]	viscosity, 323.15 K [mPa·s]	viscosity, 333.15 K [mPa·s]
x2 = 0	916.8	909.7	901.3	894.7	887.2	15.39	9.65	6.64	4.53	3.36
x2 = 0.2	929.5	922.4	914	907.4	898.6	23.82	14.54	9.29	6.23	4.52
x2 = 0.4	943.1	936.1	927.8	920.7	912	31.73	18.56	11.41	7.3	5.03
x2 = 0.6	961.6	954.8	946	938.7	931.1	31.02	17.34	10.71	7.08	4.68
x2 = 0.8	985.7	979.5	972.5	963	955.6	13.83	8.34	5.44	3.73	2.69

CCN(CC)CCO [(diethylamino)ethanol]
[2]
Conditions	mass density [kg/m3]	viscosity [mPa·s]
293.15 K	883.5	4.81
303.15 K	875.1	3.37
313.15 K	866.2	2.46
323.15 K	857.5	1.86
333.15 K	849.2	1.46

O [water] + CCNCCO
[1], x1 = 1
Conditions	mass density [kg/m3]	viscosity [mPa·s]
293.15 K	998	1.01
303.15 K	995.1	0.8
313.15 K	–	0.65
323.15 K	989.2	0.55
333.15 K	985	0.47
